In publication PMC8799717, “Pharmacological targeting PIKfyve and tubulin as an effective treatment strategy for double-hit lymphoma” (Cell Death Discovery, 2022):

How the values were obtained:
Assay in all cases: biochemical
Parameters in all cases: KINOMEscan active-site-directed competition binding panel, 468 kinases, percent of DMSO control at 1 uM
Conditions in all cases: KINOMEscan binding, percent of DMSO control; read-out: Ctrl%
MAPKAPK2 = MAPKAPK2 (Homo sapiens, UniProt P49137)
KIT(V559D,V654A) = KIT(V559D,V654A) (Homo sapiens, UniProt P10721, V559D/V654A)
MST1R = MST1R (Homo sapiens, UniProt Q04912)
DCAMKL2 = target: T1, DCAMKL2 (Homo sapiens, UniProt Q8N568)
T1 construct: gene DCLK2

[1] = target: T2, RSK3(Kin.Dom.1-N-terminal) (Homo sapiens, UniProt Q15349)
T2 construct: gene RPS6KA2; Kin.Dom.1-N-terminal

CLK3 = CLK3 (Homo sapiens, UniProt P49761)
CLK2 = CLK2 (Homo sapiens, UniProt P49760)
YSK4 = target: T3, YSK4 (Homo sapiens, UniProt Q56UN5)
T3 construct: gene MAP3K19

CDK9 = CDK9 (Homo sapiens, UniProt P50750)
BRSK1 = BRSK1 (Homo sapiens, UniProt Q8TDC3)
MAP4K4 = MAP4K4 (Homo sapiens, UniProt O95819)
MLCK = target: T4, MLCK (Homo sapiens, UniProt Q32MK0)
T4 construct: gene MYLK3

CDK4-cyclinD3 = target: T5, CDK4-cyclinD3 (Homo sapiens, UniProt P11802)
T5 construct: cyclinD3

ERBB4 = ERBB4 (Homo sapiens, UniProt Q15303)
ACVR2B = ACVR2B (Homo sapiens, UniProt Q13705)
[2] = target: T6, JAK2(JH1domain-catalytic) (Homo sapiens, UniProt O60674)
T6 construct: JH1domain-catalytic

ASK1 = target: T7, ASK1 (Homo sapiens, UniProt Q99683)
T7 construct: gene MAP3K5

MYO3A = MYO3A (Homo sapiens, UniProt Q8NEV4)
ITK = ITK (Homo sapiens, UniProt Q08881)
TNK1 = TNK1 (Homo sapiens, UniProt Q13470)
ERN1 = ERN1 (Homo sapiens, UniProt O75460)
ERK4 = target: T8, ERK4 (Homo sapiens, UniProt P31152)
T8 construct: gene MAPK4

EPHA5 = EPHA5 (Homo sapiens, UniProt P54756)
YSK1 = target: T9, YSK1 (Homo sapiens, UniProt O00506)
T9 construct: gene STK25

T1 sequence (Q8N568 whole entry): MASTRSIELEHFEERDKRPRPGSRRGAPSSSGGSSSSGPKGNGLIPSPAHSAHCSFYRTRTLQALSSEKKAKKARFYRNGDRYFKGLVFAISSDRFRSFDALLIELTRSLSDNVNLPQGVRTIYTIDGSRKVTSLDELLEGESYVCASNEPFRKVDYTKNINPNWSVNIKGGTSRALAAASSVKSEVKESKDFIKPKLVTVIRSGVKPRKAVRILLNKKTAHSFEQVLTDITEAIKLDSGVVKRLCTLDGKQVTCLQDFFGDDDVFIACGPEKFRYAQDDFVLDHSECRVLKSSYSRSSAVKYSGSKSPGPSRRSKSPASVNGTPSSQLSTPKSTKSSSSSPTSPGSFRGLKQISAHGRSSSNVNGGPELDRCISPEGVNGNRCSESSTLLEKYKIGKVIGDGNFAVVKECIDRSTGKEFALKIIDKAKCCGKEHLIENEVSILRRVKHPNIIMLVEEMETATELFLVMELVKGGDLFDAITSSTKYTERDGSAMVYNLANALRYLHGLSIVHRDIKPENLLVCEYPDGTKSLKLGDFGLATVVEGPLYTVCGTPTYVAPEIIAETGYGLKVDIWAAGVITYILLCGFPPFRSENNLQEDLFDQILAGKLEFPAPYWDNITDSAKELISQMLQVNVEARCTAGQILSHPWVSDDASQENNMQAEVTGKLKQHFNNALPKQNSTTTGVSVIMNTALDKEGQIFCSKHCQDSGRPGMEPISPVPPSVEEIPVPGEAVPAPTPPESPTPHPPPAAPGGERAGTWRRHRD
T7 sequence (Q99683 whole entry): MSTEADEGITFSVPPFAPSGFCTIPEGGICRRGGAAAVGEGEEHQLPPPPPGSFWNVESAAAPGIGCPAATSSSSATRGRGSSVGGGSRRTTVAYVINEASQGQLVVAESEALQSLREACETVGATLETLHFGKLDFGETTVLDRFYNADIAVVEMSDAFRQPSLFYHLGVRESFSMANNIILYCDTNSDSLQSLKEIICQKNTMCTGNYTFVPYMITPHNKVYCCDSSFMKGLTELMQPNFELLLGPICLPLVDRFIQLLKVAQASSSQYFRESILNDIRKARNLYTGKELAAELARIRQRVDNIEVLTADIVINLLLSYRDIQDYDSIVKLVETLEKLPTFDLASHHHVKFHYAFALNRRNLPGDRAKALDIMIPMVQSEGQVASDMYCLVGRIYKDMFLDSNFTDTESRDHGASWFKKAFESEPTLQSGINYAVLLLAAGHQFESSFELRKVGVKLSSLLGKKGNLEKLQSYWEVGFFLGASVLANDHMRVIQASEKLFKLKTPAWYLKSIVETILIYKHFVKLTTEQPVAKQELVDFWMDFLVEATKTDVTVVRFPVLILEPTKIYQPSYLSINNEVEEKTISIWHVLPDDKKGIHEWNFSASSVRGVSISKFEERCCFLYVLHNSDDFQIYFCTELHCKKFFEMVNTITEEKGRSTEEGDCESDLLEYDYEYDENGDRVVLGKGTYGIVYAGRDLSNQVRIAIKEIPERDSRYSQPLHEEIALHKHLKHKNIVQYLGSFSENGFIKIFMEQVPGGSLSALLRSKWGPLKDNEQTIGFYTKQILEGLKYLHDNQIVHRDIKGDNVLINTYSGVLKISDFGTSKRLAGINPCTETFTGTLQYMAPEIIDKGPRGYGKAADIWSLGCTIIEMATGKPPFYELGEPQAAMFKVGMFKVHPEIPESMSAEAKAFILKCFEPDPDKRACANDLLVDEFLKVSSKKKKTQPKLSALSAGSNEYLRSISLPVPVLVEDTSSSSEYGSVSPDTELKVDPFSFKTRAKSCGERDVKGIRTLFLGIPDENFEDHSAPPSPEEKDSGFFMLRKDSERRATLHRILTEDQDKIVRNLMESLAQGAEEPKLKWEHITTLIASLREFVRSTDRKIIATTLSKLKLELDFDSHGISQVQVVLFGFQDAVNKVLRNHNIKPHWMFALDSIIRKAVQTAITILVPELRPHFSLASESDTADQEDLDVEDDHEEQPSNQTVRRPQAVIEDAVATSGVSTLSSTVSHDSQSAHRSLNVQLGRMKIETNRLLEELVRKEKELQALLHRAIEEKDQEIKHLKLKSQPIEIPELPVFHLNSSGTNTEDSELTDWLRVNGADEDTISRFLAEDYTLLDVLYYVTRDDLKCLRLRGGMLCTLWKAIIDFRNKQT
T5 sequence (P11802 whole entry): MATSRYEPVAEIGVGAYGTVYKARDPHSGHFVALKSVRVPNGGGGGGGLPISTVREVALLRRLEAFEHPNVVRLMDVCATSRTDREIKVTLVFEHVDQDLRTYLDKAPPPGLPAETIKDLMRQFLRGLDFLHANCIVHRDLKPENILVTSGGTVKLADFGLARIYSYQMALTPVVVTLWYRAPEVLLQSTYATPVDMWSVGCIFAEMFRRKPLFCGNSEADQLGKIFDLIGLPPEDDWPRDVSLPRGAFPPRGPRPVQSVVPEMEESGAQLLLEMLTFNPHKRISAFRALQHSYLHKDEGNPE
T5 sequence (P30281 whole entry partner): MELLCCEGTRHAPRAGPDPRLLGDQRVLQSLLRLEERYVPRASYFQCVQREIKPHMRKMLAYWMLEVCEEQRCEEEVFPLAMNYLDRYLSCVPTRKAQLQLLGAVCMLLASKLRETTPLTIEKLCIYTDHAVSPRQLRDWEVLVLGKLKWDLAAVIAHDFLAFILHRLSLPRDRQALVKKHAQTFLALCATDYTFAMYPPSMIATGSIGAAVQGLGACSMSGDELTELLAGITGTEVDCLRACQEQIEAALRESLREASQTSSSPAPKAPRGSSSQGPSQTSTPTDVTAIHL
Chain of ERBB4 (Q15303 whole entry): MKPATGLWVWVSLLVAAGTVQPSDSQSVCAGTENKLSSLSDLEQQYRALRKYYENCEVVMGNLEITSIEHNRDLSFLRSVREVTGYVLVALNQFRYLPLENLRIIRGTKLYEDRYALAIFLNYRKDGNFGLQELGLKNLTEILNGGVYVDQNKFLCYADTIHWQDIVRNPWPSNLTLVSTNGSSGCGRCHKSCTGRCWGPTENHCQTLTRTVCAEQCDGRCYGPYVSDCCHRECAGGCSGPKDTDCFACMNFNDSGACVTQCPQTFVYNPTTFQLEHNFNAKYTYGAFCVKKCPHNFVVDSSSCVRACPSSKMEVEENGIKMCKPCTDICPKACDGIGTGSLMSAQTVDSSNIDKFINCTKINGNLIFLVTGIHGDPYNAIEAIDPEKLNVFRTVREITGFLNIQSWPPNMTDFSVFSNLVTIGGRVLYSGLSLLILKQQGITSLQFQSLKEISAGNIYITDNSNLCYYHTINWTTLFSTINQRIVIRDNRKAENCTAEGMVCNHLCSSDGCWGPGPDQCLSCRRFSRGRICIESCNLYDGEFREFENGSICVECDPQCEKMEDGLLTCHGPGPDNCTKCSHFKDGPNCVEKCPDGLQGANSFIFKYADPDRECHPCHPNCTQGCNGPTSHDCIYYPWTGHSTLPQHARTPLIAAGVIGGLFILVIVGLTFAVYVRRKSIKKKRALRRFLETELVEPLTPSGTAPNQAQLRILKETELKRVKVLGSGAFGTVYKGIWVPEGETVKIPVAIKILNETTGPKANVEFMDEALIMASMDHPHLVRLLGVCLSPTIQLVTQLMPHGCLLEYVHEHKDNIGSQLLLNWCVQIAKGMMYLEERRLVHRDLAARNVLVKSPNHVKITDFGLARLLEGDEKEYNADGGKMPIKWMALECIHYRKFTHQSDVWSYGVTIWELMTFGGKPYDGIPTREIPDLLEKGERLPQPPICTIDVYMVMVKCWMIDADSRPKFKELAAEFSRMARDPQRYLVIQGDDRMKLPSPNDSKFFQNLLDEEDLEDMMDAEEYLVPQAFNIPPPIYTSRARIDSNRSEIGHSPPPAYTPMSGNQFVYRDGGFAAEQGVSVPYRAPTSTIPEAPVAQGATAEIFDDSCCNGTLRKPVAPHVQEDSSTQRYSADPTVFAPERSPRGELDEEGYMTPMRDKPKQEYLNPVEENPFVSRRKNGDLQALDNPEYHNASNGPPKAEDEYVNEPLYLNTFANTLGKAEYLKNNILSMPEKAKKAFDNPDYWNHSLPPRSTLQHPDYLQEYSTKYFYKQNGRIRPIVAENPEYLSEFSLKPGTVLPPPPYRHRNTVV
Chain of ACVR2B (Q13705 whole entry): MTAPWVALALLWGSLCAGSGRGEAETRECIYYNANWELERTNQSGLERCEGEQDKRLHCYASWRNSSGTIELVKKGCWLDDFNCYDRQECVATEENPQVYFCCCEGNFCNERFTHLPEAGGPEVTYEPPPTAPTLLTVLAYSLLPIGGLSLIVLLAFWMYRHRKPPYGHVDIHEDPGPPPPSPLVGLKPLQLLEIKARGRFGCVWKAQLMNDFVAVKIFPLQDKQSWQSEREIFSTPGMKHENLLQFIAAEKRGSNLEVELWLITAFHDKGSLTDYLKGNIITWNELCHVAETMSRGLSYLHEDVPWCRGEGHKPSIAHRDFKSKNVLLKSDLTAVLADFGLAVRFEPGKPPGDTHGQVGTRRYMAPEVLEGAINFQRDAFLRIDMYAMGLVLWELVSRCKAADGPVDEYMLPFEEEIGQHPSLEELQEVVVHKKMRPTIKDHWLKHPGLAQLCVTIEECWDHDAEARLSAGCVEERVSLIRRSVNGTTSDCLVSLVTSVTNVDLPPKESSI
Chain of MAPKAPK2 (P49137 whole entry): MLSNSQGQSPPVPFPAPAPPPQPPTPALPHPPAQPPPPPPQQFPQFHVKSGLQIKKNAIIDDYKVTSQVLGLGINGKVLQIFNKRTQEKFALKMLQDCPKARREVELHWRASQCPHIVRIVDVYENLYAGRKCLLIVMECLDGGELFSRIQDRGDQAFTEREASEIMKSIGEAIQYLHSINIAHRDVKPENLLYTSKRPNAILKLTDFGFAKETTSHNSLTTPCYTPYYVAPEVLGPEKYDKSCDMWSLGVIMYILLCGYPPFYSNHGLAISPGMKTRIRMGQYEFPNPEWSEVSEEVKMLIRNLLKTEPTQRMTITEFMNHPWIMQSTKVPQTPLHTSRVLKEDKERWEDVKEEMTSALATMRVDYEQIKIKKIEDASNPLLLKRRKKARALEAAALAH

SMILES: Cc1ccc(NC(=O)c2cccc(C(F)(F)F)c2)cc1Nc1cc(-c2cccnc2)nc2[nH]ccc12 [HZX-02-059]
- remaining binding at 1 µM (MAPKAPK2): 80%
- remaining binding at 1 µM (KIT(V559D,V654A)): 61%
- remaining binding at 1 µM (MST1R): 89%
- remaining binding at 1 µM (DCAMKL2): 96%
- remaining binding at 1 µM [1]: 98%
- remaining binding at 1 µM (CLK3): 82%
- remaining binding at 1 µM (CLK2): 92%
- remaining binding at 1 µM (YSK4): 100%
- remaining binding at 1 µM (CDK9): 100%
- remaining binding at 1 µM (BRSK1): 97%
- remaining binding at 1 µM (MAP4K4): 89%
- remaining binding at 1 µM (MLCK): 100%
- remaining binding at 1 µM (CDK4-cyclinD3): 93%
- remaining binding at 1 µM (ERBB4): 86%
- remaining binding at 1 µM (ACVR2B): 71%
- remaining binding at 1 µM [2]: 100%
- remaining binding at 1 µM (ASK1): 93%
- remaining binding at 1 µM (MYO3A): 91%
- remaining binding at 1 µM (ITK): 100%
- remaining binding at 1 µM (TNK1): 91%
- remaining binding at 1 µM (ERN1): 66%
- remaining binding at 1 µM (ERK4): 99%
- remaining binding at 1 µM (EPHA5): 17%
- remaining binding at 1 µM (YSK1): 94%
